Results: publication PMC6753678, “Fueling Open Innovation for Malaria Transmission-Blocking Drugs: Hundreds of Molecules Targeting Early Parasite Mosquito Stages” (Frontiers in Microbiology, 2019)
Read-outs that look alike come from different tables or passages of the source.

How the values were obtained:
HepG2 cells [1] = settings: cited from earlier work
[2] = system: P. falciparum late stage (stages IV-V) gametocytes; design: method as in Almela et al 2016; settings: TCAMS screen comparison; ref Almela et al 2016; read-out: Pf GCT ATP IC50; cited from earlier work
[3] = system: P. falciparum female gametocytes; design: method as in Miguel-Blanco et al 2017; settings: TCAMS screen comparison; ref Miguel-Blanco et al 2017; read-out: Pf FGAA IC50; cited from earlier work
[4] = system: P. falciparum female gametocytes; assay: P. falciparum female gametogenesis assay (Pf FGAA); settings: 1: YES; 0: NO
HepG2 cells [5] = assay: HepG2 cytotoxicity assay; settings: HepG2 cytotoxicity unified across the three screens
Procedure, shortened: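 HepG2 cells, 2,500 per well in MEM with 10% FBS and 1% NEAA, exposed to compounds for 48 h at 37°C, 5% CO2. Viability read by fluorescence; percent inhibition relative to 50 μM doxorubicin and DMSO controls.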

[6] = system: P. falciparum late stage (stages IV-V) gametocytes; assay: P. falciparum late stage gametocyte ATP depletion assay (Pf GC-ATP); settings: 1: YES; 0: NO
[7] = value reported with the Pf FGAA screen, ref Miguel-Blanco et al 2017
[8] = value reported with the Pf GCT ATP screen, ref Almela et al 2016

| Structure (SMILES) | HepG2 cytoxicity (HepG2 cells [1]; [7]) [µM] | HepG2 cytoxicity (HepG2 cells [1]; [8]) [µM] | IC50 [2] [nM] | IC50 [3] [nM] | Is compound selective in assay? Pf FGAA active? [4] | Unified cytotox (HepG2 cells [5]) [µM] | Is compound selective in assay? Pf GC-ATP active? [6] |
| --- | --- | --- | --- | --- | --- | --- | --- |
| CCCCCCCCN1CCN(CCCCCCNc2c3ccccc3nc3ccccc23)CC1.Cl [TCMDC-138015] | 3.35 | 3.1 | 250 | 640 | 0 (0: NO) | 3.23 | 1 (1: YES) |
| COc1cc2nc(NCc3cccc(CNC(=O)c4ccc(-c5ccc(C(C)=O)cc5)cc4)c3)nc(N)c2cc1OC.O=C(O)C(F)(F)F [TCMDC-138177] | 6.82 | 9.5 | 2000 | 4730 | 0 (0: NO) | 8.16 | 0 (0: NO) |
| COc1cc2nc(N3CCN(C(=O)c4c(Cl)nsc4-c4ccccc4Cl)CC3)nc(N)c2cc1OC.O=C(O)C(F)(F)F [TCMDC-138186] | 5.89 | 8.18 | 220 | 990 | 0 (0: NO) | 7.04 | 1 (1: YES) |
| Cc1ccc(C(=O)Nc2ccc(Nc3ccnc4cc(-c5ccccn5)ccc34)cc2O)cc1.Cl [TCMDC-138205] | 1.27 | 3.11 | 480 | 540 | 0 (0: NO) | 2.19 | 0 (0: NO) |
| CN(C)CCNCc1ccc(-c2ccc3c(Nc4ccc(Oc5ccccc5)cc4)ccnc3c2)o1 [TCMDC-138399] | 5.69 | 7.57 | 330 | 1560 | 0 (0: NO) | 6.63 | 1 (1: YES) |
| CN(C)CCN(C)Cc1cccc(-c2ccc3c(Nc4ccc(F)cc4Cl)ccnc3c2)c1 [TCMDC-138416] | 6.10 | 3.6 | 480 | 7020 | 0 (0: NO) | 4.85 | 1 (1: YES) |
| CN(C)CCNCc1cccc(-c2ccc3c(Nc4ccc(Oc5ccccn5)cc4)ccnc3c2)c1 [TCMDC-138493] | 3.98 | 4.49 | 220 | 820 | 0 (0: NO) | 4.24 | 1 (1: YES) |
| COc1cc2nc(N3CCC(CCCC4CCNCC4)CC3)nc(NCc3ccccn3)c2cc1OC.O=C(O)C(F)(F)F [TCMDC-138494] | 18.51 | 10.59 | 400 | 6860 | 0 (0: NO) | 14.55 | 1 (1: YES) |
| CN1CCN(CCCNCc2cccc(Nc3nccc(Nc4ccc(Oc5ccccc5)cc4)n3)c2)CC1 [TCMDC-138616] | 4.68 | 5.17 | 320 | 980 | 0 (0: NO) | 4.92 | 1 (1: YES) |
| COc1cc2nc(N3CCC(CNC(=O)c4ccc(-c5ccc(-c6noc(C)n6)cc5)cc4)CC3)nc(N)c2cc1OC [TCMDC-138754] | 4.90 | 4.33 | 110 | 1050 | 0 (0: NO) | 4.61 | 1 (1: YES) |
| COc1cc2nc(N3CCC(CNCc4ccc(-c5ccc(C(F)(F)F)cc5)cc4)CC3)nc(N)c2cc1OC [TCMDC-138757] | 1.43 | <1.56 | 17.7 | 100 | 1 (1: YES) | 1.43 | 1 (1: YES) |
| COc1c(C2CCN(CCN3CCC(CNC(=O)c4ccc(-c5ccc(C#N)cc5)cc4)CC3)CC2)ccc2c1CCCC2 [TCMDC-138859] | 3.43 | 3.3 | 1170 | 1460 | 0 (0: NO) | 3.36 | 0 (0: NO) |
| Cl.Clc1ccc(OCCC2CCN(CCCCCCCN3CCC(CCOc4ccc(Cl)c(Cl)c4)CC3)CC2)cc1Cl [TCMDC-138967] | 1.64 | 2.6 | 470 | 520 | 0 (0: NO) | 2.12 | 0 (0: NO) |
| C=C[C@H]1CN(CCCCCCC)CC[C@H]1CCNc1ccnc2ccc(OC)cc12 [TCMDC-139204] | 2.24 | 3.4 | 1080 | 1800 | 0 (0: NO) | 2.82 | 0 (0: NO) |
| COc1ccc(CNC(=O)c2cnc3c(O)cccc3c2Nc2cccc(NC(=O)c3ccc(Cl)c(Cl)c3)c2)cc1.O=C(O)C(F)(F)F [TCMDC-139607] | – | <1.56 | 680 | 1600 | 0 (0: NO) | 1.56 | 0 (0: NO) |
| CC(Cc1ccc(CNC(=O)c2ccc(CC(C)NCCc3cccc(Cl)c3)cc2)cc1)NCCc1cccc(Cl)c1 (stereo not shown) [TCMDC-139659] | 2.26 | 3.15 | 570 | 860 | 0 (0: NO) | 2.71 | 0 (0: NO) |
| CC(=O)N(Cc1ccc(CC(C)NCCc2cccc(Cl)c2)cc1)Cc1ccc(CC(C)NCCc2cccc(Cl)c2)cc1 (stereo not shown) [TCMDC-139678] | 2.85 | 2.3 | 1400 | 810 | 0 (0: NO) | 2.58 | 0 (0: NO) |
| c1cc(Nc2nc(-c3ccc(-c4csc(Nc5ccncc5)n4)cc3)cs2)ccn1 [TCMDC-139725] | 2.26 | 17.3 | 260 | 30 | 1 (1: YES) | 9.78 | 1 (1: YES) |
| CC(Cc1ccc(C(=O)Nc2ccc(CC(C)NCCc3cccc(Cl)c3)cc2)cc1)NCCc1ccc(C(F)(F)F)cc1 (stereo not shown) [TCMDC-139790] | 4.13 | 3.3 | 310 | 1010 | 0 (0: NO) | 3.71 | 1 (1: YES) |
| CC(CCCCCC(=O)Nc1ccc(CC(C)NCCc2cccc(Cl)c2)cc1)NCCc1cccc(Cl)c1 (stereo not shown) [TCMDC-139800] | 2.55 | 3.2 | 430 | 1390 | 0 (0: NO) | 2.87 | 0 (0: NO) |
